Series [1] can be described thus: Permeability in the CACO-2/TC7 in vitro model (Method C). To be noted: human, apical to basolateral, pH gradient 6.5/7.4 and BSA gradient 0.5%/5%, 20 μM compound. The class given is in vitro ADME. From the text: Permeability of Compounds.
Permeability of a compound across the epithelium cells along the gastrointestinal tract is an important limiting factor for the oral absorption and systemic availability of the compound. An in vitro model utilizing Caco-2/TC7 cells is employed to assess the permeability characteristics of new chemical entities (NCEs). For orally administered compounds, absorption depends on the intrinsic permeability across the intestinal epithelium and whether the active agent is a substrate or inhibitor of uptake or efflux transporters.
The permeability studies were performed under standard conditions in the apical to basolateral (A→B) direction with a pH gradient and a BSA gradient (standard apical medium (0.5% BSA at pH 6.5)/standard basal medium (5% BSA at pH 7.4)); conditions that most closely reflect the conditions in the in vivo situation. Samples were deproteinized by the addition of 400 μl acetonitrile to 200 μl sample, followed by a 20-minute centrifugation at 1730 g. […] Analytical conditions: Supernatants recovered following centrifugation were analysed by LC/MS/MS using a reverse phase column and the mobile phases delivered at 0.3 ml/minute in a gradient: water (A) and acetonitrile (B) (each with 0.1% formic acid). […]

Another series relates to Haemonchus contortus. In words: Screening method to test activity against Haemonchus contortus L1 larvae (Method A). The following applies: 96 h, read-out: motility inhibition. Type of series: cell-based. The protocol: Screening method to test activity of compounds against Haemonchus contortus.
Twenty L1 Haemonchus contortus larvae were added to wells of a microtitre plate containing a nutrient medium and the test compound in DMSO. An analysis was conducted at 4 days to determine the extent of development of the larvae. Larvae exposed to DMSO alone served as controls. Compounds 3, 6, 12, 15, 43, 44, 45, 46, 47, 48, 49, & 50 gave at least 90% motility inhibition at a test concentration of less than or equal to <1 μM when assessed at the 4 day time point.

Series [2] concerns ivermectin-resistant strains of Haemonchus contortus. Description: Efficacy against ivermectin-resistant endoparasites in sheep (FIG. 2). Type of series: in vivo. The following applies: 0.2 mg/kg orally.
Series [3] has as its system ivermectin-resistant strains of Trichostrongylus columbriformis. Described as above. The following applies: 0.2 mg/kg orally. The class given is in vivo.
In series [4] the test system is ivermectin-resistant strains of Ostertagia circumcincta. The description is as above. The class given is in vivo. To be noted: 0.2 mg/kg orally.

Among the data in patent publication US10463661B2, “Anthelmintic compounds” (MERIAL INC., priority 2014, dated 2019) are Papp A→B, inhibition and efficacy values, retold here.

By Papp A→B is commonly meant how fast a substance crosses the layer from the apical side. Read a high Papp A→B as fast passage. As usually defined, the inhibition is how much of the control response was suppressed.

A value given as a limit tells only on which side of the number the result lay.

For `N#Cc1ccc(N2CCC(OCC(=O)N3CCN(c4nc5cc(C(F)(F)F)ccc5s4)CC3)CC2)cc1C(F)(F)F` [Compound 3, 4-[4-[2-oxo-2-[4-[5-(trifluoromethyl)-1,3-benzothiazol-2-yl]piperazin-1-yl]ethoxy]-1-piperidyl]-2-(trifluoromethyl)benzonitrile], in series [1], the apparent permeability from apical to basolateral (Papp A→B) at 20 μM worked out at 2.8 ×10⁻⁶ cm/s. Further, the inhibition at 1 µM in the series on Haemonchus contortus is ≥ 90%.

`N#Cc1ccc(N2CC(OCC(=O)N3CCN(c4nc5cc(C(F)(F)F)ccc5s4)CC3)C2)cc1C(F)(F)F` [Compound 6, 4-[3-[2-oxo-2-[4-[5-(trifluoromethyl)-1,3-benzothiazol-2-yl]piperazin-1-yl]ethoxy]azetidin-1-yl]-2-(trifluoromethyl)benzonitrile]: the inhibition at 1 µM in the series with Haemonchus contortus is ≥ 90%.

Turning to ivermectin, the efficacy result in series [2] was “almost completely inactive”; in series [3], “less than 60%”; in series [4], “less than 30%”.
